Literature values as cited in patent publication US20050220913A1, “Novel in-expensive and efficient process for isolation of imperatorin, a potent inducible nitric oxide synthase inhibitor and anti-inflammatory drug candidate from Aegle marmelos Correa” (Council of Scientific and Industrial Research, priority 2004, published 2005).

Experiments:
[1] = tested on: inducible nitric oxide synthase (iNOS); settings: imperatorin isolated from Saposhnikovia divaricata; Yang et al. 1999
[2] = tested on: human promyelocytic leukaemia, HL-60 cells; settings: at micromolar concentrations; imperatorin from roots of Angelica dahurica; Hyun-Ock et al. 2002
HL-60 cells = settings: Kawa et al. 2000

In the case of CC(C)=CCOc1c2occc2cc2ccc(=O)oc12 [Imperatorin], the “IC50 value for inhibition of nitrite production” value [1] is given as 17.3 µg/mL, the “induction of apoptosis of HL-60 cells” value [2] is given as “able to trigger apoptosis of HL-60 cells” and the “activity of HL-60 cells by nitro blue tetrazolium (NBT) method” value (HL-60 cells) is given as “strong activity”.
